Results published in PubChem BioAssay AID1259407 (Chemical Carcinogenesis Research Information System (CCRIS), 2018).
The source made the active and inactive calls. The rule behind the calls is not given here.

Tested on: CCRIS mutagenicity, Ames/micronucleus/aberration tests
Experiment: CCRIS mutagenicity studies

Oc1cccc2cccnc12
mutagenic call (End Point: IN VITRO CHROMOSOMAL ABERRATIONS, Test System: CHL CELLS, Metabolic Activation: RAT, LIVER, S-9, SODIUM PHENOBARBITAL AND 5,6-BENZOFLAVONE): active; positive (structural changes)
mutagenic call (End Point: IN VITRO CHROMOSOMAL ABERRATIONS, Test System: CHO-LB CELLS, Metabolic Activation: NONE): inactive; negative
mutagenic call (End Point: IN VITRO CHROMOSOMAL ABERRATIONS, Test System: CHO-LB CELLS, Metabolic Activation: RAT, LIVER, S-9, AROCLOR 1254): active; positive
mutagenic call (End Point: IN VITRO CHROMOSOMAL ABERRATIONS, Test System: CHO-WBL CELLS, Metabolic Activation: RAT, LIVER, S-9, PHENOBARBITAL AND BETA-NAPHTHOFLAVONE): active; positive
mutagenic call (Test System: AMES SALMONELLA TYPHIMURIUM, Strain/Indicator: TA97, Metabolic Activation: HAMSTER, LIVER, S-9, AROCLOR 1254 (10%), Method: PREINCUBATION): active; positive
mutagenic call (Test System: AMES SALMONELLA TYPHIMURIUM, Strain/Indicator: TA97, Metabolic Activation: NONE, Method: PREINCUBATION): inactive; negative
mutagenic call (Test System: AMES SALMONELLA TYPHIMURIUM, Strain/Indicator: TA97, Metabolic Activation: RAT, LIVER, S-9, AROCLOR 1254 (10%), Method: PREINCUBATION): active; positive
mutagenic call (Test System: AMES SALMONELLA TYPHIMURIUM, Strain/Indicator: TA98, Metabolic Activation: HAMSTER, LIVER, S-9, AROCLOR 1254 (10%), Method: PREINCUBATION): inactive; negative
mutagenic call (Test System: AMES SALMONELLA TYPHIMURIUM, Strain/Indicator: TA98, Metabolic Activation: HAMSTER, LIVER, S-9, AROCLOR 1254 (30%), Method: PREINCUBATION): inactive; negative
mutagenic call (Test System: AMES SALMONELLA TYPHIMURIUM, Strain/Indicator: TA98, Metabolic Activation: NONE, Method: FLUCTUATION (MICROTITER)): inactive; negative
mutagenic call (Test System: AMES SALMONELLA TYPHIMURIUM, Strain/Indicator: TA98, Metabolic Activation: NONE, Method: PREINCUBATION): inactive; negative
mutagenic call (Test System: AMES SALMONELLA TYPHIMURIUM, Strain/Indicator: TA98, Metabolic Activation: RAT LIVER S-9, AROCLOR 1254, Method: FLUCTUATION (MICROTITER)): active; positive
mutagenic call (Test System: AMES SALMONELLA TYPHIMURIUM, Strain/Indicator: TA98, Metabolic Activation: RAT, LIVER, S-9, AROCLOR 1254 (10%), Method: PREINCUBATION): inactive; negative
mutagenic call (Test System: AMES SALMONELLA TYPHIMURIUM, Strain/Indicator: TA98, Metabolic Activation: RAT, LIVER, S-9, AROCLOR 1254 (30%), Method: PREINCUBATION): active; positive
mutagenic call (Test System: AMES SALMONELLA TYPHIMURIUM, Strain/Indicator: TA98, Metabolic Activation: RAT, LIVER, S-9, AROCLOR 1254, Method: STANDARD PLATE): active; positive
mutagenic call (Test System: AMES SALMONELLA TYPHIMURIUM, Strain/Indicator: TA98, Metabolic Activation: RAT, LIVER, S-9, KC500 OR PHENOBARBITAL, Method: LIQUID SUSPENSION): active; positive
mutagenic call (Test System: AMES SALMONELLA TYPHIMURIUM, Strain/Indicator: TA98, Metabolic Activation: RAT, LIVER, S-9, Method: PREINCUBATION): active; positive
mutagenic call (Test System: AMES SALMONELLA TYPHIMURIUM, Strain/Indicator: TA100, Metabolic Activation: HAMSTER, LIVER, S-9, AROCLOR 1254 (10%), Method: PREINCUBATION): active; positive
mutagenic call (Test System: AMES SALMONELLA TYPHIMURIUM, Strain/Indicator: TA100, Metabolic Activation: HAMSTER, LIVER, S-9, AROCLOR 1254 (30%), Method: PREINCUBATION): inactive; negative
mutagenic call (Test System: AMES SALMONELLA TYPHIMURIUM, Strain/Indicator: TA100, Metabolic Activation: NONE, Method: PREINCUBATION): inactive; negative
mutagenic call (Test System: AMES SALMONELLA TYPHIMURIUM, Strain/Indicator: TA100, Metabolic Activation: NONE, Method: STANDARD PLATE): inactive; negative
mutagenic call (Test System: AMES SALMONELLA TYPHIMURIUM, Strain/Indicator: TA100, Metabolic Activation: RAT, LIVER, S-9, AROCLOR 1254 (5%, 10% OR 20%), Method: STANDARD PLATE): active; positive
mutagenic call (Test System: AMES SALMONELLA TYPHIMURIUM, Strain/Indicator: TA100, Metabolic Activation: RAT, LIVER, S-9, AROCLOR 1254 (10% OR 20%), Method: STANDARD PLATE): active; positive
mutagenic call (Test System: AMES SALMONELLA TYPHIMURIUM, Strain/Indicator: TA100, Metabolic Activation: RAT, LIVER, S-9, AROCLOR 1254 (10%), Method: PREINCUBATION): active; positive
mutagenic call (Test System: AMES SALMONELLA TYPHIMURIUM, Strain/Indicator: TA100, Metabolic Activation: RAT, LIVER, S-9, AROCLOR 1254 (30%), Method: PREINCUBATION): active; positive
mutagenic call (Test System: AMES SALMONELLA TYPHIMURIUM, Strain/Indicator: TA100, Metabolic Activation: RAT, LIVER, S-9, AROCLOR 1254, Method: STANDARD PLATE): active; positive
mutagenic call (Test System: AMES SALMONELLA TYPHIMURIUM, Strain/Indicator: TA100, Metabolic Activation: RAT, LIVER, S-9, KC500 OR PHENOBARBITAL, Method: LIQUID SUSPENSION): active; positive
mutagenic call (Test System: AMES SALMONELLA TYPHIMURIUM, Strain/Indicator: TA100, Metabolic Activation: RAT, LIVER, S-9, Method: PREINCUBATION): active; positive
mutagenic call (Test System: AMES SALMONELLA TYPHIMURIUM, Strain/Indicator: TA100, Metabolic Activation: S-9, Method: PREINCUBATION): active; positive
mutagenic call (Test System: AMES SALMONELLA TYPHIMURIUM, Strain/Indicator: TA1535, Metabolic Activation: HAMSTER, LIVER, S-9, AROCLOR 1254 (10%), Method: PREINCUBATION): inactive; negative
mutagenic call (Test System: AMES SALMONELLA TYPHIMURIUM, Strain/Indicator: TA1535, Metabolic Activation: NONE, Method: PREINCUBATION): inactive; negative
mutagenic call (Test System: AMES SALMONELLA TYPHIMURIUM, Strain/Indicator: TA1535, Metabolic Activation: RAT, LIVER, S-9, AROCLOR 1254 (10%), Method: PREINCUBATION): inactive; negative
mutagenic call (Test System: AMES SALMONELLA TYPHIMURIUM, Strain/Indicator: TA1535, Metabolic Activation: RAT, LIVER, S-9, AROCLOR 1254, Method: STANDARD PLATE): active; positive
mutagenic call (Test System: AMES SALMONELLA TYPHIMURIUM, Strain/Indicator: TA1537, Metabolic Activation: NONE, Method: FLUCTUATION (MICROTITER)): inactive; negative
mutagenic call (Test System: AMES SALMONELLA TYPHIMURIUM, Strain/Indicator: TA1537, Metabolic Activation: RAT LIVER S-9, AROCLOR 1254, Method: FLUCTUATION (MICROTITER)): active; positive
mutagenic call (Test System: AMES SALMONELLA TYPHIMURIUM, Strain/Indicator: TA1537, Metabolic Activation: RAT, LIVER, S-9, AROCLOR 1254, Method: STANDARD PLATE): active; positive
mutagenic call (Test System: AMES SALMONELLA TYPHIMURIUM, Strain/Indicator: TA7001, Metabolic Activation: NONE, Method: FLUCTUATION (MICROTITER)): inactive; negative
mutagenic call (Test System: AMES SALMONELLA TYPHIMURIUM, Strain/Indicator: TA7001, Metabolic Activation: RAT LIVER S-9, AROCLOR 1254, Method: FLUCTUATION (MICROTITER)): inactive; negative
mutagenic call (Test System: AMES SALMONELLA TYPHIMURIUM, Strain/Indicator: TA7002, Metabolic Activation: NONE, Method: FLUCTUATION (MICROTITER)): inactive; negative
mutagenic call (Test System: AMES SALMONELLA TYPHIMURIUM, Strain/Indicator: TA7002, Metabolic Activation: RAT LIVER S-9, AROCLOR 1254, Method: FLUCTUATION (MICROTITER)): active; positive
mutagenic call (Test System: AMES SALMONELLA TYPHIMURIUM, Strain/Indicator: TA7003, Metabolic Activation: NONE, Method: FLUCTUATION (MICROTITER)): inactive; negative
mutagenic call (Test System: AMES SALMONELLA TYPHIMURIUM, Strain/Indicator: TA7003, Metabolic Activation: RAT LIVER S-9, AROCLOR 1254, Method: FLUCTUATION (MICROTITER)): inactive; negative
mutagenic call (Test System: AMES SALMONELLA TYPHIMURIUM, Strain/Indicator: TA7004, Metabolic Activation: NONE, Method: FLUCTUATION (MICROTITER)): inactive; negative
mutagenic call (Test System: AMES SALMONELLA TYPHIMURIUM, Strain/Indicator: TA7004, Metabolic Activation: RAT LIVER S-9, AROCLOR 1254, Method: FLUCTUATION (MICROTITER)): inactive; negative
mutagenic call (Test System: AMES SALMONELLA TYPHIMURIUM, Strain/Indicator: TA7005, Metabolic Activation: NONE, Method: FLUCTUATION (MICROTITER)): inactive; negative
mutagenic call (Test System: AMES SALMONELLA TYPHIMURIUM, Strain/Indicator: TA7005, Metabolic Activation: RAT LIVER S-9, AROCLOR 1254, Method: FLUCTUATION (MICROTITER)): active; positive
mutagenic call (Test System: AMES SALMONELLA TYPHIMURIUM, Strain/Indicator: TA7006, Metabolic Activation: NONE, Method: FLUCTUATION (MICROTITER)): inactive; negative
mutagenic call (Test System: AMES SALMONELLA TYPHIMURIUM, Strain/Indicator: TA7006, Metabolic Activation: RAT LIVER S-9, AROCLOR 1254, Method: FLUCTUATION (MICROTITER)): inactive; negative
mutagenic call (Test System: UDS RODENT HEPATOCYTES, Strain/Indicator: THY INCORP (NON-S-PHASE), Metabolic Activation: IN VIVO, Method: AUTORADIOGRAPHY): inactive; negative
